Results from patent US10385019B2, “Inhibitors of EGFR and methods of use thereof” (Dana-Farber Cancer Institute, Inc., priority 2015, dated 2019).

Target: EGFR T790M/L858R Ba/F3 cell line (Homo sapiens, UniProt P00533, T790M/L858R, cells depend on it)
Assay: Ba/F3 cell proliferation model
Type: cell-based, murine
Conditions: combined with cetuximab (% cetuximab, 1.0 μM drug concentration with 1.0 μg/mL cetuximab)
Procedure, shortened: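 Murine Ba/F3 cells made IL-3-independent by retroviral EGFR L858R/T790M, selected in puromycin (2 μg/ml) and kept in RPMI 1640 with 10% FBS. Cells were exposed to serially diluted compound for 72 h, with growth read by MTS assay in six wells per point and ≥3 repeats. Sigmoidal dose-response non-linear regression gave the values.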

EGFR T790M/L858R Ba/F3 cell line, sequence (P00533 whole entry T790M/L858R): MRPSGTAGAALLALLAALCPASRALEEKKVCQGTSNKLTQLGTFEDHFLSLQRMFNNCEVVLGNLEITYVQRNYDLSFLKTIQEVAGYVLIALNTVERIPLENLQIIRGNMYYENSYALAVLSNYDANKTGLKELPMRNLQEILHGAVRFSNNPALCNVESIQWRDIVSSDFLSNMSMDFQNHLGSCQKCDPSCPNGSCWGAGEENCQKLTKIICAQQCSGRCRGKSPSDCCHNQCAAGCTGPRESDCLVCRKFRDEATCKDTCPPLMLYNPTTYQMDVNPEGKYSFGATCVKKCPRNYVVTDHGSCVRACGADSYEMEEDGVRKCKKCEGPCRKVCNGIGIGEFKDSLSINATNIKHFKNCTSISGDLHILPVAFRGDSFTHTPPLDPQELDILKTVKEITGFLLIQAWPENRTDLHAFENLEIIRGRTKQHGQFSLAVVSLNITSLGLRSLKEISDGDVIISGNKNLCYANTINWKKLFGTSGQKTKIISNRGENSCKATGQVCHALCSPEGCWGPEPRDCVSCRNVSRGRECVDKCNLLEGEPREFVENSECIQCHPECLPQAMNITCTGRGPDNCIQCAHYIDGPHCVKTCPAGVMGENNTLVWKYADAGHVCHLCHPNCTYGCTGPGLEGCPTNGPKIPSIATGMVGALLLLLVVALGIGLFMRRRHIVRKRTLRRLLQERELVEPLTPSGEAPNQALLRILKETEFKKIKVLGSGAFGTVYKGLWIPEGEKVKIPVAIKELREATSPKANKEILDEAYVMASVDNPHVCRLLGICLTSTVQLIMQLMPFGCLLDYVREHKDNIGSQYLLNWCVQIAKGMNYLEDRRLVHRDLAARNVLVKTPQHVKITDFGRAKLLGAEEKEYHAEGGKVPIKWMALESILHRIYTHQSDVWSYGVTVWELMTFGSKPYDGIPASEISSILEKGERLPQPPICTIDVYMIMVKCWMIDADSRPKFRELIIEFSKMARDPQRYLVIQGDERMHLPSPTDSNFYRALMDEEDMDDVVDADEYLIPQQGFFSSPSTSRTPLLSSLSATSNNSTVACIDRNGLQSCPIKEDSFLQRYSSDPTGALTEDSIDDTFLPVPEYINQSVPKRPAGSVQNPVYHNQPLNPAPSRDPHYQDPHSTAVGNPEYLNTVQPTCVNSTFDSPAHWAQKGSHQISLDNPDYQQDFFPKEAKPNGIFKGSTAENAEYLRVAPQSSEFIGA

SMILES	Activity (% inhibition)
O=C(Nc1nccs1)[C@H](c1cccc([N+](=O)[O-])c1)N1Cc2ccccc2C1=O [Compound I-12, (S)-2-(3-nitrophenyl)-2-(1-oxoisoindolin-2-yl)-N-(thiazol-2-yl)acetamide]	A (a % inhibition of about 75%)
O=C(Nc1nccs1)[C@@H](c1ccccc1)N1Cc2ccc(-c3ccc(OC(F)(F)F)cc3)cc2C1=O [Compound I-74, (R)-2-(1-oxo-6-(4-(trifluoromethoxy)phenyl)isoindolin-2-yl)-2-phenyl-N-(thiazol-2-yl)acetamide]	B (a % inhibition of between about 50% to about 75%)
O=C(NCCN1CCOCC1)c1ccc(-c2ccc3c(c2)C(=O)N([C@@H](C(=O)Nc2nccs2)c2ccccc2)C3)cc1 [Compound I-83, (R)-N-(2-morpholinoethyl)-4-(3-oxo-2-(2-oxo-1-phenyl-2-(thiazol-2-ylamino)ethyl)isoindolin-5-yl)benzamide]	D (a % inhibition of between about 0% to about 25%)
CN(C)CCNC(=O)c1cccc(-c2ccc3c(c2)C(=O)N([C@@H](C(=O)Nc2nccs2)c2ccccc2)C3)c1 [Compound I-88, (R)-N-(2-(dimethylamino)ethyl)-3-(3-oxo-2-(2-oxo-1-phenyl-2-(thiazol-2-ylamino)ethyl)isoindolin-5-yl)benzamide]	C (a % inhibition of between about 25% to about 50%)
N#Cc1ccc(-c2ccc3c(c2)C(=O)N([C@H](C(=O)Nc2nccs2)c2ccccc2)C3)cc1F [Compound I-114, (S)-2-(6-(4-cyano-3-fluorophenyl)-1-oxoisoindolin-2-yl)-2-phenyl-N-(thiazol-2-yl)acetamide]	B (a % inhibition of between about 50% to about 75%)
C[C@@H](NC(=O)[C@H](c1ccccc1)N1Cc2ccccc2C1=O)c1ccccc1 [Compound I-1, (S)-2-(1-oxoisoindolin-2-yl)-2-phenyl-N-((R)-1-phenylethyl)acetamide]	A (a % inhibition of about 75%)
O=C(Nc1ccccc1F)[C@@H](c1ccccc1)N1Cc2ccccc2C1=O [Compound I-55, (R)-N-(2-fluorophenyl)-2-(1-oxoisoindolin-2-yl)-2-phenylacetamide]	B (a % inhibition of between about 50% to about 75%)
O=C(Nc1nccs1)[C@H](c1ccccc1)N1Cc2ccccc2C1=O [Compound I-21, (S)-2-(1-oxoisoindolin-2-yl)-2-phenyl-N-(thiazol-2-yl) acetamide]	B (a % inhibition of between about 50% to about 75%)
O=C(Nc1nccs1)[C@@H](c1ccccc1)N1Cc2cc(-c3ccc4[nH]ccc4c3)ccc2C1=O [Compound I-104, (R)-2-(5-(1H-indol-5-yl)-1-oxoisoindolin-2-yl)-2-phenyl-N-(thiazol-2-yl)acetamide]	C (a % inhibition of between about 25% to about 50%)
O=C(Nc1nccs1)[C@@H](c1ccccc1)N1Cc2ccc(-c3cccc(F)c3)cc2C1=O [Compound I-76, (R)-2-(6-(3-fluorophenyl)-1-oxoisoindolin-2-yl)-2-phenyl-N-(thiazol-2-yl)acetamide]	B (a % inhibition of between about 50% to about 75%)
O=C(Nc1nccs1)[C@@H](c1ccccc1)N1Cc2cc(-c3ccc4c(c3)OCCO4)ccc2C1=O [Compound I-103, (R)-2-(5-(2,3-dihydrobenzo[b] [1,4]dioxin-6-yl)-1-oxoisoindolin-2-yl)-2-phenyl-N-(thiazol-2-yl)acetamide]	C (a % inhibition of between about 25% to about 50%)
NC(=O)c1csc(NC(=O)[C@@H](c2ccccc2)N2Cc3ccccc3C2=O)n1 [Compound I-17, (R)-2-(2-(1-oxoisoindolin-2-yl)-2-phenylacetamido)thiazole-4-carboxamide]	A (a % inhibition of about 75%)
O=C(Nc1nccs1)C(c1ccccn1)N1Cc2ccc(-c3ccc(N4CCNCC4)cc3)cc2C1=O (stereo not drawn) [Compound I-124, 2-(1-oxo-6-(4-(piperazin-1-yl)phenyl)isoindolin-2-yl)-2-(pyridin-2-yl)-N-(thiazol-2-yl)acetamide]	D (a % inhibition of between about 0% to about 25%)
Nc1cccc(-c2ccc3c(c2)C(=O)N([C@@H](C(=O)Nc2nccs2)c2ccccc2)C3)c1 [Compound I-73, (R)-2-(6-(3-aminophenyl)-1-oxoisoindolin-2-yl)-2-phenyl-N-(thiazol-2-yl)acetamide]	C (a % inhibition of between about 25% to about 50%)

Results, then the compound that gave them:

Activity (% inhibition)	SMILES
A (a % inhibition of about 75%)	O=C(Nc1ncco1)[C@H](c1ccccc1)N1Cc2ccccc2C1=O [Compound I-20, (S)-N-(oxazol-2-yl)-2-(1-oxoisoindolin-2-yl)-2-phenylacetamide]
A (a % inhibition of about 75%)	CCOC(=O)c1csc(NC(=O)[C@H](Cc2ccccc2)N2Cc3ccccc3C2=O)n1 [Compound I-48, ethyl (S)-2-(2-(1-oxoisoindolin-2-yl)-3-phenylpropanamido) thiazole-4-carboxylate]
A (a % inhibition of about 75%)	O=C(Nc1nccs1)[C@@H](c1ccccc1)N1Cc2cc(Nc3cccc(F)c3)ccc2C1=O [Compound I-97, (R)-2-(5-((3-fluorophenyl)amino)-1-oxoisoindolin-2-yl)-2-phenyl-N-(thiazol-2-yl)acetamide]
A (a % inhibition of about 75%)	O=C(Nc1nc(C(=O)N2CCC(N3CCOCC3)CC2)cs1)[C@@H](c1ccccc1)N1Cc2ccccc2C1=O [Compound I-24, (R)-N-(4-(4-morpholinopiperidine-1-carbonyl)thiazol-2-yl)-2-(1-oxoisoindolin-2-yl)-2-phenylacetamide]
A (a % inhibition of about 75%)	O=C(NCC(O)CO)c1cc(Br)ccc1N[C@@H](C(=O)Nc1nccs1)c1ccccc1 (stereo partly drawn) [Compound I-111, 5-bromo-N-(2,3-dihydroxypropyl)-2-(((R)-2-oxo-1-phenyl-2-(thiazol-2-ylamino)ethyl)amino)benzamide]
A (a % inhibition of about 75%)	O=C(Nc1nc(Br)cs1)[C@@H](c1ccccc1)N1Cc2ccccc2C1=O [Compound I-36, (R)-N-(4-bromothiazol-2-yl)-2-(1-oxoisoindolin-2-yl)-2-phenylacetamide]
A (a % inhibition of about 75%)	O=C(Nc1cc(Br)ccn1)[C@@H](c1ccccc1)N1Cc2ccccc2C1=O [Compound I-28, (R)-N-(4-bromopyridin-2-yl)-2-(1-oxoisoindolin-2-yl)-2-phenylacetamide]
A (a % inhibition of about 75%)	O=C(Nc1nc(-c2ccncc2)cs1)[C@@H](c1ccccc1)N1Cc2ccccc2C1=O [Compound I-37, (R)-2-(1-oxoisoindolin-2-yl)-2-phenyl-N-(4-(pyridin-4-yl)thiazol-2-yl)acetamide]
A (a % inhibition of about 75%)	O=C(Nc1nc(C(=O)N2CCOCC2)cs1)[C@@H](c1ccccc1)N1Cc2ccccc2C1=O [Compound I-22, (R)-N-(4-(morpholine-4-carbonyl)thiazol-2-yl)-2-(1-oxoisoindolin-2-yl)-2-phenylacetamide]
A (a % inhibition of about 75%)	O=C(Nc1nccs1)[C@@H](Cc1ccccc1)N1Cc2ccccc2C1=O [Compound I-39, (R)-2-(1-oxoisoindolin-2-yl)-3-phenyl-N-(thiazol-2-yl)propanamide]
